Experimental data as given in ChEMBL document CHEMBL4219198, “Peptidomimetic nitrile inhibitors of malarial protease falcipain-2 with high selectivity against human cathepsins” (Bioorg Med Chem Lett, 2018).

Key:
[1] = Selectivity ratio of IC50 for human cathepsin S to IC50 for Plasmodium falciparum falcipain-2
[2] = Selectivity ratio of IC50 for human cathepsin B to IC50 for Plasmodium falciparum falcipain-2
[3] = Selectivity ratio of IC50 for human cathepsin K to IC50 for Plasmodium falciparum falcipain-2
Falcipain 2 = target: T1, Falcipain 2 (Plasmodium falciparum, UniProt Q9N6S8); experiment: Inhibition of Plasmodium falciparum falcipain-2
T1 sequence (Q9N6S8 whole entry): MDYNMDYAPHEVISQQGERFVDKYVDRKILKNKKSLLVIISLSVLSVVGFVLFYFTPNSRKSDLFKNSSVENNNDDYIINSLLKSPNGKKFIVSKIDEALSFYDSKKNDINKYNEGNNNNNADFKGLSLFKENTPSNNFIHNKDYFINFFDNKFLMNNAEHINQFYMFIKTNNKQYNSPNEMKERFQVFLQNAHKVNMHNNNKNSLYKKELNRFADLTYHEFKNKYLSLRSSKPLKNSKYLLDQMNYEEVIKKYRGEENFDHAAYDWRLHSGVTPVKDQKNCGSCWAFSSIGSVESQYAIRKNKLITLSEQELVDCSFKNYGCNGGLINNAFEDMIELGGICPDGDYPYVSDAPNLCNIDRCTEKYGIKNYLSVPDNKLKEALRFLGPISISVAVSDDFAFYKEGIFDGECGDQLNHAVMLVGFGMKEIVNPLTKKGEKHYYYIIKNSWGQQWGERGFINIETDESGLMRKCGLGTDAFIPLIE

[4] = Selectivity ratio of IC50 for human cathepsin L to IC50 for Plasmodium falciparum falcipain-2
Cathepsin S = Cathepsin S (Homo sapiens, UniProt P25774); experiment: Inhibition of human cathepsin S
Cathepsin B = Cathepsin B (Homo sapiens, UniProt P07858); experiment: Inhibition of human cathepsin B
Cathepsin K = target: T2, Cathepsin K (Homo sapiens, UniProt P43235); experiment: Inhibition of human cathepsin K
T2 sequence (P43235 whole entry): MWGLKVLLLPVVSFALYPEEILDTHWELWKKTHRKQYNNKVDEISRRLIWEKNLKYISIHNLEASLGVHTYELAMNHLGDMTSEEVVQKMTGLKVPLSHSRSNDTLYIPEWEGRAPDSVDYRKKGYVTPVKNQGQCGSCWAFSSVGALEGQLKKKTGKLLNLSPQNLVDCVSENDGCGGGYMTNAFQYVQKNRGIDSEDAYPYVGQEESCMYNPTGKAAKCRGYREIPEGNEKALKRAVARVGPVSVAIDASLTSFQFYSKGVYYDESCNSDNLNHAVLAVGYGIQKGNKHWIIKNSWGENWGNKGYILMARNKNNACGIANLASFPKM

Procathepsin L = Procathepsin L (Homo sapiens, UniProt P07711); experiment: Inhibition of human cathepsin L
Plasmodium falciparum = experiment: Antimalarial activity against Plasmodium falciparum infected in human erythrocytes; format: functional, organism-based
[5] = Cytotoxicity against HUVEC assessed as reduction in cell viability; format: cell-based; settings: human, HUVEC cells
[6] = Cytotoxicity against human HeLa cells assessed as reduction in cell viability; format: cell-based
[7] = target: T3, Cysteine protease falcipain-3 (Plasmodium falciparum, UniProt Q9NAW4); experiment: Inhibition of Plasmodium falciparum falcipain-3
T3 sequence (Q9NAW4 whole entry): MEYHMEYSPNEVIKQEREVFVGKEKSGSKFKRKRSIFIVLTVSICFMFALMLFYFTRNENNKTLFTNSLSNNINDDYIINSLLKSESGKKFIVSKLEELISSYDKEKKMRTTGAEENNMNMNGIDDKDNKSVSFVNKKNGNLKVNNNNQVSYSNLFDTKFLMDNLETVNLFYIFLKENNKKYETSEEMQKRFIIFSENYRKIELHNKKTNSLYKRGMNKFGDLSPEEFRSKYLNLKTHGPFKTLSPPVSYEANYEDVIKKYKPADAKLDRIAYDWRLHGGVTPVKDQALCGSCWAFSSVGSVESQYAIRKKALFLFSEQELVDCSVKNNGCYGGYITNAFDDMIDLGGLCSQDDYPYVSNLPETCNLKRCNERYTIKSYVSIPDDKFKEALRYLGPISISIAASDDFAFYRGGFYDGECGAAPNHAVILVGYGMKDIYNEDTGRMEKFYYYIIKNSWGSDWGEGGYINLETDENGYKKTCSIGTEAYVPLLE

Sequence of Cathepsin S (P25774 whole entry): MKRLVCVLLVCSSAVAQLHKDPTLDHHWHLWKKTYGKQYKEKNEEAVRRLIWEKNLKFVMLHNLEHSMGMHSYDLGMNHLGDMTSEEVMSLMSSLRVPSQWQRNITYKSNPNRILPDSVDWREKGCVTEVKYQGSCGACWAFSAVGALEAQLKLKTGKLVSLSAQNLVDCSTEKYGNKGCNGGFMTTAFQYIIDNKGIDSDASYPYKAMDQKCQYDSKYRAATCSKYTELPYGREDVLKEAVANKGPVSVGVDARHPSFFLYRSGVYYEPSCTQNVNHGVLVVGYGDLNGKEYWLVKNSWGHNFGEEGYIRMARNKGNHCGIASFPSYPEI
Sequence of Procathepsin L (P07711 whole entry): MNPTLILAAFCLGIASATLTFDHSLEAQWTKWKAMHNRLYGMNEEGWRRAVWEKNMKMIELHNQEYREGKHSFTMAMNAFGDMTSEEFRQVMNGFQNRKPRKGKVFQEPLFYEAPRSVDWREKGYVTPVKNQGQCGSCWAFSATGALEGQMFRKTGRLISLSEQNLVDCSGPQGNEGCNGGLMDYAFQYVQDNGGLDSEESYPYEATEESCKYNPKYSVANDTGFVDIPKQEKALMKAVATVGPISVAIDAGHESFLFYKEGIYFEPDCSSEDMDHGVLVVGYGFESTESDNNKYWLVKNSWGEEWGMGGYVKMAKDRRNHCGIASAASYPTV

Structure (SMILES) | Ratio IC50 [1] | Ratio IC50 [2] | Ratio IC50 [3] | IC50 (Falcipain 2) [µM] | Ratio IC50 [4] | IC50 (Cathepsin S) [µM] | IC50 (Cathepsin B) [µM] | IC50 (Cathepsin K) [µM] | IC50 (Procathepsin L) [µM] | EC50 (Plasmodium falciparum) [µM] | CC50 [5] [µM] | CC50 [6] [µM] | IC50 [7] [µM]
Cn1nc(C(F)(F)F)cc1-c1ccc(C(=O)N[C@@H](Cc2cccnc2)C(=O)NC2(C#N)CCS(=O)(=O)CC2)s1 | 9 | > 793 | 107 | 0.0063 | 679 |  |  |  |  |  |  |  | 
N#CC1(NC(=O)[C@@H](Cc2cccnc2)NC(=O)c2ccc(-c3ccccc3)cc2)CC1 |  |  |  | > 5 |  | > 5 | > 50 | > 5 | > 5 |  |  |  | 
N#CC1(NC(=O)[C@H](Cc2cscn2)NC(=O)c2ccc(-c3ccccc3)cc2)CC1 |  |  |  | 0.137 |  | 2.37 | 2.37 | 0.435 | > 5 |  |  |  | 
CC(C)C[C@H](NC(=O)c1ccc(-c2ccccc2)cc1)C(=O)NC1(C#N)CC1 |  |  |  | 0.027 |  | 0.085 | 1.72 | 0.0013 | 0.492 |  |  |  | 
N#CC1(NC(=O)[C@H](CCCCCN)NC(=O)c2ccc(-c3ccccc3)cc2)CC1 |  |  |  | > 5 |  |  |  |  |  |  |  |  | 
N#CC1(NC(=O)[C@H](CCCCN)NC(=O)c2ccc(-c3ccccc3)cc2)CC1 |  |  |  | > 5 |  | > 5 | 1.27 | > 5 | > 5 |  |  |  | 
N#CC1(NC(=O)[C@H](Cc2c[nH]c3ccc(O)cc23)NC(=O)c2ccc(-c3ccccc3)cc2)CC1 |  |  |  | 0.192 |  | 0.253 | 1.1 | 1.87 | 0.494 |  |  |  | 
N#CC1(NC(=O)[C@H](Cc2nc3ccccc3s2)NC(=O)c2ccc(-c3ccccc3)cc2)CC1 |  |  |  | > 5 |  | 0.018 | > 5 | > 5 | 0.334 |  |  |  | 
CN1CCN(Cc2ccc(C(=O)N[C@@H](Cc3cccnc3)C(=O)NC3(C#N)CCS(=O)(=O)CC3)s2)CC1 | 7 | > 90 | 34 | 0.0554 | 6 |  |  |  |  |  |  |  | 
CC(C)CN(NC(=O)c1ccc(CN2CCN(C)CC2)cc1)c1nc(C#N)ncc1Br |  |  |  | 0.0006 |  | 0.03 | 0.987 | 0.0002 | 0.0007 | 0.061 |  |  | 
N#CC1(NC(=O)C(Cc2ccc(Cl)nc2)NC(=O)c2ccc(-c3ccccc3)cc2)CC1 (stereo unspecified) |  |  |  | 0.23 |  | 0.19 | > 5 | > 5 | 4.28 |  |  |  | 
CC(C)C[C@H](NC(=O)c1ccc(CN2CCN(C)CC2)cc1)C(=O)NC1(C#N)CCS(=O)(=O)CC1 |  |  |  | 0.057 |  | 0.001 | 2.32 | 0.001 | 0.004 | 2.7 |  |  | 
N#CC1(NC(=O)[C@H](Cc2ccncc2)NC(=O)c2ccc(-c3ccccc3)cc2)CC1 |  |  |  | > 5 |  | 0.71 | > 5 | 0.867 | 0.755 |  |  |  | 
CN1CCN(Cc2ccc(-c3cncc(C(=O)N[C@@H](Cc4cccnc4)C(=O)NC4(C#N)CC4)c3)cc2)CC1 | 552 | > 2080 | > 2080 | 0.0024 | 45 |  |  |  |  | 2 | > 16 | > 16 | 
N#CC1(NC(=O)[C@H](Cc2ccc(O[C@@H]3CCNC3)cc2)NC(=O)c2ccc(-c3ccccc3)cc2)CC1 |  |  |  | 1.59 |  | 3.58 | 2.24 | 2.69 | 0.3 |  |  |  | 
N#CC1(NC(=O)[C@H](Cc2cccnc2)NC(=O)c2ccc(-c3ccccc3)cc2)CC1 | 11 | 119 | 9 | 0.0231 | 69 | 0.382 | 2.75 | 0.202 | 1.59 | > 25 |  |  | 0.117
CN1CCN(C(=O)C[C@H](NC(=O)c2ccc(-c3ccccc3)cc2)C(=O)NC2(C#N)CC2)CC1 |  |  |  | > 5 |  | > 5 | > 5 | > 5 | > 5 |  |  |  | 
CC(C)C[C@H](NC(=O)c1ccc(-c2ccccc2)cc1)C(=O)NC1(C#N)CCS(=O)(=O)CC1 |  |  |  | 0.008 |  | 0.0011 | 2.5 | 0.00011 | 0.099 | > 25 |  |  | 
CN1CCN(Cc2ccc(C(=O)N[C@@H](Cc3cccnc3)C(=O)NC3(C#N)CC3)s2)CC1 | 32 | > 192 | 34 | 0.0259 | 14 |  |  |  |  |  |  |  | 
N#CC1(NC(=O)[C@H](Cc2cccnc2)NC(=O)c2cccc(-n3cnnn3)c2)CC1 | 35 | > 1670 | 1360 | 0.003 | 574 |  |  |  |  | 2 | > 16 | > 16 | 
Cn1nc(C(F)(F)F)cc1-c1ccc(C(=O)N[C@@H](Cc2cccnc2)C(=O)NC2(C#N)CC2)s1 | 30 | > 2270 | 212 | 0.0022 | 1240 |  |  |  |  |  |  |  | 
N#CC1(NC(=O)[C@H](Cc2ccccc2)NC(=O)c2ccc(-c3ccccc3)cc2)CC1 |  |  |  | 0.667 |  | 0.283 | 2.21 | 0.213 | 0.635 |  |  |  | 
N#CC1(NC(=O)[C@H](Cc2cccnc2)NC(=O)c2cccc(-c3cn[nH]c3)c2)CC1 | 42 | > 4170 | 2350 | 0.0012 | 349 |  |  |  |  | 2 | > 16 | > 16 | 
COc1ccc(CC(NC(=O)c2ccc(-c3ccccc3)cc2)C(=O)NC2(C#N)CC2)cn1 (stereo unspecified) |  |  |  | 0.178 |  | 0.195 | 4.08 | > 5 | 2.63 |  |  |  | 
CN(C)c1ccc(C[C@H](NC(=O)c2ccc(-c3ccccc3)cc2)C(=O)NC2(C#N)CC2)cc1 |  |  |  | > 5 |  |  | 0.715 | > 5 | > 5 |  |  |  | 
CN1CCCC(c2cccc(C(=O)N[C@@H](Cc3cccnc3)C(=O)NC3(C#N)CC3)c2)C1 (stereo partly specified) | 202 | > 581 | 170 | 0.0086 | 61 |  |  |  |  |  |  |  | 
N#CC1(NC(=O)[C@H](Cc2ccccn2)NC(=O)c2ccc(-c3ccccc3)cc2)CC1 |  |  |  | > 5 |  | > 5 | > 5 | 3.83 | > 5 |  |  |  | 
N#CC1(NC(=O)[C@H](Cc2cccnc2)NC(=O)c2cccc(-c3ncc[nH]3)c2)CC1 | 76 | > 1850 | 718 | 0.0027 | 128 |  |  |  |  | 2 | > 16 | > 16 | 
CS(=O)(=O)c1cccc(-c2cccc(C(=O)N[C@@H](Cc3cccnc3)C(=O)NC3(C#N)CC3)c2)c1 | 26 | > 610 | 180 | 0.0082 | 302 |  |  |  |  |  |  |  | 
